In patent US20250109140A1, “5-[5-(PIPERIDIN-4-YL)THIENO[3,2-C]PYRAZOL-2-YL]INDAZOLE DERIVATIVES AND RELATED COMPOUNDS AS MODULATORS FOR SPLICING NUCLEIC ACIDS AND FOR THE TREATMENT OF PROLIFERATIVE DISEASES” (REMIX THERAPUTICS INC., priority 2022, published 2025):
pEC50, pIC50: −log10 of the molar value. Structures can show the parent of a compound that is named as a salt. Where two headings read alike, the source gives them in different places.

Legend:
[1] = system: K562 (human chronic myelogenous leukemia) cells; experiment: Cell viability, Cell Titer Glo 2.0 assay, K562 cells; type: cell-based; details: 72 hours
Summary of the method: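 Luminescent Cell Titer Glo 2.0 readout after 72 h exposure (37° C, 5% CO2), medium-only wells as blank. Cells plated 500/well in IMDM with 10% FBS; test compounds diluted from DMSO series 1:100 into medium, 0.1% DMSO final.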

HiBiT-tagged HTT protein = experiment: HiBiT protein abundance assay, HTT (K562 HiBiT knock-in cells); type: cell-based, human; details: 24 hours treatment
Summary of the method: (§1)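 Luminescence from the Nano-Glo HiBiT lytic reagent measured tagged protein remaining in knock-in K562 cells after 24 h compound exposure (top dose 10 µM final, 3-fold, 10 points). Responses normalized between parental K562 and DMSO-treated lines were fit by four-parameter logistic to interpolate the 50% concentration.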

HTT mRNA = experiment: Splicing RT-qPCR assay, HTT canonical (CJ) and alternative (AJ) junction mRNA; type: cell-based; details: Homo sapiens; for pEC50: AC50 = 50% response in AJ mRNA increase
Summary of the method: (§2)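 Readout is RT-qPCR of CJ and AJ mRNA in lysates from A673 or K562 cells given an 11-point titration (top dose 10 uM final, DMSO at most 0.25%) for 24 hours. Data were normalized to GAPDH, GUSB or PPIA, then to DMSO.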

Target C = experiment: HiBiT protein abundance assay, Target C (K562 HiBiT knock-in cells); type: cell-based, human; details: 24 hours treatment
Summary of the method: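 The readout was Nano-Glo HiBiT lytic luminescence after 24 h compound exposure at 37 °C, in 10000 K562 knock-in cells/well. Compounds ran as 10-point, 3-fold series, top final […], ≤0.25% DMSO. Responses were scaled between parental K562 and DMSO-treated controls, and IC50 was interpolated at 50% from four-parameter logistic curves.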

MYB mRNA = experiment: Splicing RT-qPCR assay, MYB canonical (CJ) and alternative (AJ) junction mRNA; type: cell-based; details: Homo sapiens; for pEC50: AC50 = 50% response in AJ mRNA increase
Summary of the method: as §2

Target C mRNA = experiment: Splicing RT-qPCR gene panel, Target C canonical junction (CJ) mRNA; type: cell-based; details: Homo sapiens; Table 8; larger gene panel, decrease in CJ mRNA levels
Summary of the method: as §2

SMN2 mRNA = experiment: Splicing RT-qPCR gene panel, SMN2 canonical junction (CJ) mRNA; type: cell-based; details: Homo sapiens; Table 8; larger gene panel, decrease in CJ mRNA levels
Summary of the method: as §2

HiBiT-tagged MYB protein = experiment: HiBiT protein abundance assay, MYB (K562 HiBiT knock-in cells); type: cell-based, human; details: 24 hours treatment
Summary of the method: as §1

[2] = Table 7, RT-qPCR, A673 or K562 cells, 24 hours treatment
[3] = Table 7, IC50 = 50% response in CJ mRNA decrease, RT-qPCR, A673 or K562 cells, 24 hours treatment, read-out: HTT CJ
[4] = Table 8, larger gene panel, decrease in CJ mRNA levels, read-out: HTT CJ IC50
[5] = Table 7, IC50 = 50% response in CJ mRNA decrease, RT-qPCR, A673 or K562 cells, 24 hours treatment, read-out: MYB CJ
[6] = Table 8, larger gene panel, decrease in CJ mRNA levels, read-out: MYB CJ IC50

| SMILES | pIC50 [1] | pIC50 (HiBiT-tagged HTT protein) | pEC50 (HTT mRNA; [2]) | pIC50 (HTT mRNA; [3]) | pIC50 (HTT mRNA; [4]) | pIC50 (Target C) | pEC50 (MYB mRNA; [2]) | pIC50 (MYB mRNA; [5]) | pIC50 (MYB mRNA; [6]) | pIC50 (Target C mRNA) | pIC50 (SMN2 mRNA) | pIC50 (HiBiT-tagged MYB protein) |
| --- | --- | --- | --- | --- | --- | --- | --- | --- | --- | --- | --- | --- |
| Cc1cn2nc(-c3cc4cn(C5CCNCC5)nc4s3)cc(C)c2n1 [Compound 162, 4-(5-{2,8-dimethylimidazo[1,2-b]pyridazin-6-yl}thieno[2,3-c]pyrazol-2-yl)piperidine] | 5.00 to 6.00 | > 7.00 | 6.00 to 7.00 | 6.00 to 7.00 | 6.00 to 7.00 | 6.00 to 7.00 | 6.00 to 7.00 | 6.00 to 7.00 | 6.00 to 7.00 | 6.00 to 7.00 | > 7.00 | 6.00 to 7.00 |
| Cc1nc2c(F)cc(-n3cc4sc(C5CCNCC5)cc4n3)cc2o1 [Compound 167] | 5.00 to 6.00 | 6.00 to 7.00 | 6.00 to 7.00 | 6.00 to 7.00 | 6.00 to 7.00 | 6.00 to 7.00 | 5.00 to 6.00 | 5.00 to 6.00 | 5.00 to 6.00 | 5.00 to 6.00 | 6.00 to 7.00 | 6.00 to 7.00 |
| Cc1cn2nc(-n3cc4cc(C5CCNCC5)sc4n3)cc2c(C)n1 [Compound 164] | 5.00 to 6.00 | 5.00 to 6.00 | 5.00 to 6.00 | 5.00 to 6.00 | 5.00 to 6.00 | 5.00 to 6.00 | 5.00 to 6.00 | 5.00 to 6.00 | 5.00 to 6.00 | 5.00 to 6.00 | 5.00 to 6.00 | 5.00 to 6.00 |
| Cc1nc2c(F)cc(-n3cc4cc(C5CCNCC5)sc4n3)cc2o1 [Compound 157] | 6.00 to 7.00 | > 7.00 | 6.00 to 7.00 | 6.00 to 7.00 | 6.00 to 7.00 | > 7.00 | 6.00 to 7.00 | 5.00 to 6.00 | 6.00 to 7.00 | 6.00 to 7.00 | > 7.00 | 6.00 to 7.00 |
| CN1CCC(n2cc3cc(-c4cc(F)c5nn(C)cc5c4)sc3n2)CC1 [Compound 150, 7-fluoro-2-methyl-5-[2-(1-methylpiperidin-4-yl)thieno[2,3-c]pyrazol-5-yl]indazole] | 6.00 to 7.00 | > 7.00 | 6.00 to 7.00 | 6.00 to 7.00 | 6.00 to 7.00 | 6.00 to 7.00 | 6.00 to 7.00 | 6.00 to 7.00 | 6.00 to 7.00 | 6.00 to 7.00 | > 7.00 | 6.00 to 7.00 |
| Cn1cc2cc(-n3cc4cc(C5CCNCC5)sc4n3)cc(F)c2n1 [Compound 104, 7-fluoro-2-methyl-5-[5-(piperidin-4-yl)thieno[2,3-c]pyrazol-2-yl]indazole] | 6.00 to 7.00 | > 7.00 | 6.00 to 7.00 | > 7.00 | 6.00 to 7.00 | 6.00 to 7.00 | 6.00 to 7.00 | 6.00 to 7.00 | 6.00 to 7.00 | 6.00 to 7.00 | > 7.00 | 6.00 to 7.00 |
| Cc1cn2nc(-n3cc4cc(C5CCNCC5)sc4n3)nc2c(C)n1 [Compound 163, 4-(2-{6,8-dimethyl-[1,2,4]triazolo [1,5-a]pyrazin-2-yl}thieno[2,3-c]pyrazol-5-yl)piperidine] | 5.00 to 6.00 | 5.00 to 6.00 | 5.00 to 6.00 | 5.00 to 6.00 | 5.00 to 6.00 | 5.00 to 6.00 | 5.00 to 6.00 | 5.00 to 6.00 | 5.00 to 6.00 | 5.00 to 6.00 | 5.00 to 6.00 | 5.00 to 6.00 |
| Cc1cn2nc(-n3cc4sc(C5CCNCC5)cc4n3)cc(C)c2n1 [Compound 101, 4-(2-[2,8-dimethylimidazo[1,2-b]pyridazin-6-yl]thieno[3,2-c]pyrazol-5-yl)piperidine] | 6.00 to 7.00 | > 7.00 | 6.00 to 7.00 | > 7.00 | 6.00 to 7.00 | > 7.00 | 6.00 to 7.00 | 6.00 to 7.00 | 6.00 to 7.00 | > 7.00 | > 7.00 | 6.00 to 7.00 |
| Cc1cn2cc(-n3cc4sc(C5CCNCC5)cc4n3)ncc2n1 [Compound 169] | 5.00 to 6.00 | 5.00 to 6.00 | 5.00 to 6.00 | 5.00 to 6.00 | 5.00 to 6.00 | 5.00 to 6.00 | 5.00 to 6.00 | 5.00 to 6.00 | 5.00 to 6.00 | 5.00 to 6.00 | 5.00 to 6.00 | 5.00 to 6.00 |

The next lines start with the values.

| pIC50 [1] | pIC50 (HiBiT-tagged HTT protein) | pEC50 (HTT mRNA; [2]) | pIC50 (HTT mRNA; [3]) | pIC50 (HTT mRNA; [4]) | pIC50 (Target C) | pEC50 (MYB mRNA; [2]) | pIC50 (MYB mRNA; [5]) | pIC50 (MYB mRNA; [6]) | pIC50 (Target C mRNA) | pIC50 (SMN2 mRNA) | pIC50 (HiBiT-tagged MYB protein) | SMILES |
| --- | --- | --- | --- | --- | --- | --- | --- | --- | --- | --- | --- | --- |
| 5.00 to 6.00 | 5.00 to 6.00 | 5.00 to 6.00 | 5.00 to 6.00 | 5.00 to 6.00 | < 5.00 | < 5.00 | < 5.00 | < 5.00 | < 5.00 | 5.00 to 6.00 | 5.00 to 6.00 | Cc1cn2cc(-n3cc4sc(C5CCNCC5)cc4n3)nc2c(C)n1 [Compound 181] |
| 5.00 to 6.00 | 5.00 to 6.00 | < 5.00 | < 5.00 | < 5.00 | 5.00 to 6.00 | < 5.00 | < 5.00 | < 5.00 | < 5.00 | < 5.00 | 5.00 to 6.00 | Cn1cc2c(F)cc(-n3cc4sc(C5CCNCC5)cc4n3)cc2n1 [Compound 175] |
| 5.00 to 6.00 | 6.00 to 7.00 | 6.00 to 7.00 | 6.00 to 7.00 | 6.00 to 7.00 | 6.00 to 7.00 | 5.00 to 6.00 | 5.00 to 6.00 | 5.00 to 6.00 | 5.00 to 6.00 | 6.00 to 7.00 | 6.00 to 7.00 | Cc1cn2nc(-n3cc4sc(C5CCNCC5)cc4n3)cc2c(C)n1 [Compound 171] |
| 5.00 to 6.00 | > 7.00 | 6.00 to 7.00 | 6.00 to 7.00 | 6.00 to 7.00 | 6.00 to 7.00 | 6.00 to 7.00 | 6.00 to 7.00 | 6.00 to 7.00 | 6.00 to 7.00 | > 7.00 | 6.00 to 7.00 | Cn1cc2cc(-c3nc4cn(C5CCNCC5)nc4s3)cc(F)c2n1 [Compound 1100, 7-fluoro-2-methyl-5-[2-(piperidin-4-yl)pyrazolo[4,3-d][1,3]thiazol-5-yl]indazole] |
| 5.00 to 6.00 | 5.00 to 6.00 | 5.00 to 6.00 | 5.00 to 6.00 | 5.00 to 6.00 | < 5.00 | < 5.00 | 5.00 to 6.00 | < 5.00 | < 5.00 | 6.00 to 7.00 | < 5.00 | Cc1cn2nc(-c3cc4cn([C@H]5CCNC[C@@H]5F)nc4s3)cc(C)c2n1 (mixture of isomers) [Compound 212, 5-(2,8-dimethylimidazo[1,2-b]pyridazin-6-yl)-2-((1:1 mixture of 3S,4S and 3R,4R)-3-fluoropiperidin-4-yl)-2H-thieno[2,3-c]pyrazole] |
| 5.00 to 6.00 | < 5.00 | < 5.00 | < 5.00 | < 5.00 | < 5.00 | < 5.00 | < 5.00 | < 5.00 | < 5.00 | 5.00 to 6.00 | < 5.00 | Cc1cn2nc(-n3cc4sc(N5CCC(NC(C)(C)C)C5)cc4n3)cc(C)c2n1 (stereo not drawn) [Compound 189, N-tert-butyl-1-(2-{2,8-dimethylimidazo[1,2-b]pyridazin-6-yl}thieno[3,2-c]pyrazol-5-yl) pyrrolidin-3-amine] |
| < 5.00 | < 5.00 | < 5.00 | < 5.00 | < 5.00 | < 5.00 | < 5.00 | < 5.00 | < 5.00 | < 5.00 | < 5.00 | < 5.00 | COc1c(-c2cc3cn(C4CCNCC4)nc3s2)cc(F)c2nn(C)cc12 [Compound 224] |
| 5.00 to 6.00 | 6.00 to 7.00 | < 5.00 | < 5.00 | < 5.00 | 6.00 to 7.00 | < 5.00 | < 5.00 | < 5.00 | < 5.00 | < 5.00 | 6.00 to 7.00 | Cc1c(O)c(-c2cc3cn(C4CCNCC4)nc3s2)cc2cn(C)nc12 [Compound 221] |
| 5.00 to 6.00 | < 5.00 | 5.00 to 6.00 | 5.00 to 6.00 | 5.00 to 6.00 | < 5.00 | 5.00 to 6.00 | < 5.00 | 5.00 to 6.00 | < 5.00 | 5.00 to 6.00 | < 5.00 | Cc1cn2nc(-c3cc4cn(C5CCNCC5)nc4s3)c(O)c2c(C)n1 [Compound 213, 4,6-dimethyl-2-[2-(piperidin-4-yl)thieno[2,3-c]pyrazol-5-yl]pyrazolo[1,5-a]pyrazin-3-ol hydrochloride] |
